Measurements taken from patent US11851431B2, “Tricyclic Janus kinase 1 inhibitors, and compositions and methods thereof” (LYNK PHARMACEUTICALS CO. LTD., priority 2018, dated 2023).

Tests used:
JAK2 = biological target: T1, JAK2 (Homo sapiens, UniProt O60674); assay: JAK biochemical microfluidic assay (Caliper EZ Reader), JAK2; settings: 1 mM ATP; head prints (0.25 nM)
T1 construct: purchased Carna Biosciences
Method: (§1) JAK activity was determined in the reaction buffer 50 mM HEPES, 0.01% Brij35, 10 mM MgCl2, 2 mM DTT by a microfluidic assay. The phosphorylation of a FAM labeled peptide substrate was monitored in the Caliper EZ Reader II (Perkin Elmer). The assay condition for each batch of enzyme (Carna Biosciences) was optimized to obtain 10% conversion rate of peptide substrate.
(§2) The test compounds were dissolved in DMSO to a stock concentration of 10 mM. Three-fold serially diluted compounds with top concentration of 5 μM were pre-incubated with JAK1, JAK2 or TYK2 for 10 min at ambient temperature. The final DMSO concentration of assay mixture was 1%. […] The reaction was stopped by adding 50 mM EDTA.
(§3) The percent inhibition was calculated by the following formula. % Inhibition=(Conversionmax−Conversionsample)/(Conversionmax−Conversionmin)*100 Conversionmax means the conversion rate in the positive well without addition of compound • […] means the conversion rate in the well without addition of enzyme • Conversionsample means the conversion rate of test compounds
(§4) The dose-response (percent inhibition) curve was plotted and IC50 values were determined by GraphPad software.

BaF3-TEL-JAK1 = assay: Anti-proliferative assay, BaF3-TEL-JAK1 cells; type: cell-based; settings: 72 h, Cell-Titer Glo
Method: (§5) Dimerization domain of Tel protein fused with JAK kinase domain was permanently transduced into BaF3 cells, whose proliferation is dependent on JAK activity in the absence of IL-3 induction. These engineered BaF3-Tel-JAK cells were used to monitor JAK inhibitory activities of the compounds in the cellular.
(§6) BaF3-Tel-JAK cells were cultured in RPMI-1640 (Corning) containing 10% fetal bovine serum. Cells were seeded at 2000/well of white flat bottom 96-well plates. The well containing medium only was used as background control. After 24h growth, cells were treated with compounds. The test compounds were dissolved in DMSO to a stock concentration of 10 mM. 3-fold serially diluted compounds for 9 concentrations with top concentration of 10 μM was added into the each well. The final DMSO concentration was 0.2%. The cells continued to grow at 37° C. in 5% CO2 for 72 h after compound treatment. The viability was measured by cellular ATP determination using the Cell-Titer Glo luciferase reagent (Promega). The Luminescence value was recorded by a multi-label reader Envision (PerkinElmer). Values were transformed to percent inhibition using the following formula. % Inhibition=(Readoutmax−Readoutsample)/(Readoutmax−Readoutmin)*100
(§7) The well without compound but with equivalent DMSO was defined as Readout max
(§8) The well with only medium and equivalent DMSO was defined as Readout min
(§9) The dose-response (percent inhibition) curve was plotted and GI50 values (the concentration that causes 50% growth inhibition) were determined by GraphPad software.

JAK1 = biological target: T2, JAK1 (Homo sapiens, UniProt P23458); assay: JAK biochemical microfluidic assay (Caliper EZ Reader), JAK1; settings: 1 mM ATP; head prints (5 nM)
T2 construct: purchased Carna Biosciences
Method: as §1, §2, §3, §4

TYK2 = biological target: T3, TYK2 (Homo sapiens, UniProt P29597); assay: JAK biochemical microfluidic assay (Caliper EZ Reader), TYK2; settings: 1 mM ATP; head prints (2.5 nM)
T3 construct: purchased Carna Biosciences
Method: as §1, §2, §3, §4

BaF3-TEL-JAK2 = assay: Anti-proliferative assay, BaF3-TEL-JAK2 cells; type: cell-based; settings: 72 h, Cell-Titer Glo
Method: as §5, §6, §7, §8, §9

[1] = Human liver microsome stability study; type: in vitro ADME; settings: liver microsomes, pH 7.4, 0.5 mg/mL microsomal protein, 1 μM test article; for microsomal CLint at 1 μM: read-out: HLM Clint; for half-life at 1 μM: read-out: HLM T½
Method: Commercially available human liver microsome (vendor: Corning) were used for study the Phase I stability of test articles.
Microsomes were pre-incubated with test compound or control compounds for 10 min at 37° C. in 100 mM potassium phosphate buffer, pH 7.4, 3.3 mM MgCl2. The reaction was initiated by addition of 80 μL of the NADPH regenerating system to 320 μL of each incubation mixture per time point. The final incubation condition was composed of 0.5 mg/mL microsomal protein, 1 μM test article/positive control, 1.3 mM NADP, 3.3 mM glucose-6-phosphate, and 0.6 U/mL glucose-6-phosphate dehydrogenase. The 0-minute samples were prepared by addition of an 80 μL aliquot of each incubation mixture to 400 μL quench reagent to precipitate proteins. And then a 20 μL aliquot of the NADPH regenerating system was added. At 10, 30, and 90 minutes, the reaction will be stopped by the addition of cold acetonitrile solution containing tolbutamide and propanolol served as internal standard. The samples taken at all time points were centrifuged at 4000×g for 15 minutes. 80 μL of supernatant are taken into 96-well assay plates pre-added with 160 μL ultrapure water, and then analyzed by LC/MS/MS (Shimadzu LC30AD & API4000/API5000)).
Concentrations of test articles, control compounds in the samples were determined by using LC/MS/MS) method. Plotting of the chromatograms and peak area integrations are carried out by Analyst (AB Sciex).
In the determination of the in vitro elimination constant, ke, of the control compounds, the analyte/internal standard peak area ratios will be converted to percentage remaining (% Remaining) with the following equation:
The CLint of microsomes was calculated using the formula: CLint (mic)=0.693/T1/2/mg microsome protein per mL.

[2] = Rat pharmacokinetic study; type: in vivo, Sprague-Dawley rats
Method: Pharmacokinetic profile of test articles were evaluated in fasted Sprague-Dawley rats. Typically, Rats were dosed with 1 mg/kg and 2 mg/kg by intravenous injection and oral gavage, respectively. After dosing, blood samples were collected at each time point. For IV injection group, time points were set at 5, 15, 30 min, and then 1, 2, 4, 8 and 24 hours after dosing. For oral gavage group, time points were set at 15, 30 min, and then 1, 2, 4, 8, and 24 hours. Blood was collected into appropriately labeled tubes containing K2EDTA as the anticoagulant. Plasma was obtained within 1 hours of blood collection by centrifugation at 8000×g and 4° C. for 6 minutes, and then stored at −20° C. until analyzed by LC/MS/MS for quantification.
PK parameter values, including, but not necessarily limited to, the maximum plasma concentrations (Cmax), the time to reach the maximum concentrations (Tmax), and the area under the plasma concentration vs. time curve (AUC) from time zero to 24-hour (AUC0-24h) were determined using WinNonlin program.

[3] = Sprague-Dawley, plasma, 1 mg/kg, Rat iv @1 mpk, 0.2 mg/mL in 4% DMSO + 15% Solutol HS 15 + 81% Saline

T1 sequence (O60674 whole entry): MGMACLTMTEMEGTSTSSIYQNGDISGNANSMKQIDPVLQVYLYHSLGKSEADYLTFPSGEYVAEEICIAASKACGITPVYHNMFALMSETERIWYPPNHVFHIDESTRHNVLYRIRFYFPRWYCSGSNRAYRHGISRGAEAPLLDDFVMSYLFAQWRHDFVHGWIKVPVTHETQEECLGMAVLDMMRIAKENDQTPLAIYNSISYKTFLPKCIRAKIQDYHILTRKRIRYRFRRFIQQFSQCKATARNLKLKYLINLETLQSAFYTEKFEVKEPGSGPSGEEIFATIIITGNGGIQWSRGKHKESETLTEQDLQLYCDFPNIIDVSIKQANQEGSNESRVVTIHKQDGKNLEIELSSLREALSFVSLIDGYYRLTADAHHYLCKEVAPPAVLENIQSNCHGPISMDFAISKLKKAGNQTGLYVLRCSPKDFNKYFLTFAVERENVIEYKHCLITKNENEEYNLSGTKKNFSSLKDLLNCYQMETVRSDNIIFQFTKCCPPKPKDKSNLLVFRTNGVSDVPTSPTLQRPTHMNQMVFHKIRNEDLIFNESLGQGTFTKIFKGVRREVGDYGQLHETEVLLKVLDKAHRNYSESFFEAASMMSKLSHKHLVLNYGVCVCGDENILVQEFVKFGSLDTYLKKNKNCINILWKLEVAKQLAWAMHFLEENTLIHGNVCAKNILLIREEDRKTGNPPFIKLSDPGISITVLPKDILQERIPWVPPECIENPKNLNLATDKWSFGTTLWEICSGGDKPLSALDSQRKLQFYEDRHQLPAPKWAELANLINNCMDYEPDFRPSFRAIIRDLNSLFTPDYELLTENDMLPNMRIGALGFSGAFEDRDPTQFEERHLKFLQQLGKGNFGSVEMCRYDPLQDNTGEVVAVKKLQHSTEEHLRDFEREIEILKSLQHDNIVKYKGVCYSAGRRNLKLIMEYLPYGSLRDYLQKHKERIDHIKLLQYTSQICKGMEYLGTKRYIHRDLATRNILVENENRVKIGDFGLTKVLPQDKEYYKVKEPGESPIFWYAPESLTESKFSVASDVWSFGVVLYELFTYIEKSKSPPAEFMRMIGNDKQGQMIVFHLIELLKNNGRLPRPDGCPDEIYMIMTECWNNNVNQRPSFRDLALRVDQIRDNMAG
T2 sequence (P23458 whole entry): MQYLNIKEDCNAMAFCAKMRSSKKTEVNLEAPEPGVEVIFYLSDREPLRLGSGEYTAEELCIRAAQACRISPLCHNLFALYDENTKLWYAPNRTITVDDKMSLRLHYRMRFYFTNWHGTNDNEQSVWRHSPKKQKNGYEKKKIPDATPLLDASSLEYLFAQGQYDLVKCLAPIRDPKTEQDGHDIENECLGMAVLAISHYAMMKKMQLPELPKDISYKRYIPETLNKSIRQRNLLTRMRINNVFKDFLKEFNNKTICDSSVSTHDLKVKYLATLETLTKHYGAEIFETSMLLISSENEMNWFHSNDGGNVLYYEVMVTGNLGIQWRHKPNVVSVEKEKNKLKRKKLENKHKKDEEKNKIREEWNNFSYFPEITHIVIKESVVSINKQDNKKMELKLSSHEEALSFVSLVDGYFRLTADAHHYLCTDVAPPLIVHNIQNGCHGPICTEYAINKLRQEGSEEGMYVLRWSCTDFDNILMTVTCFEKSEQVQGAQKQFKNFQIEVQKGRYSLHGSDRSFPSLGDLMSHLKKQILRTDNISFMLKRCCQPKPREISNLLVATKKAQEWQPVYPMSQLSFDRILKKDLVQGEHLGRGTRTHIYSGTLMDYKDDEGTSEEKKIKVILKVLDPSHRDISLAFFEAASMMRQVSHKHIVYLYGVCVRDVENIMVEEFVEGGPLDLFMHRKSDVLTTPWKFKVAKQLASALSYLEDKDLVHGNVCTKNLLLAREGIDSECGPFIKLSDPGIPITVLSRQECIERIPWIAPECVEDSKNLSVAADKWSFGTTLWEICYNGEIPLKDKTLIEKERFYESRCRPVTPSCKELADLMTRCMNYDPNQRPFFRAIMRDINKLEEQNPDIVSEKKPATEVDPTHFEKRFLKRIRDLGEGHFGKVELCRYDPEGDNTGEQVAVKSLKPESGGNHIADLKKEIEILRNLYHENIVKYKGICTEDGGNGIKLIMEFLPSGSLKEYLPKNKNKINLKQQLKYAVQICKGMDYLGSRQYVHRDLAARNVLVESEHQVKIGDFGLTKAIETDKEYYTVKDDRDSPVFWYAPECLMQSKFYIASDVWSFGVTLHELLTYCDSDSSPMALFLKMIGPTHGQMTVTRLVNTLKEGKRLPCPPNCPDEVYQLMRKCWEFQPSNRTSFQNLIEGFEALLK
T3 sequence (P29597 whole entry): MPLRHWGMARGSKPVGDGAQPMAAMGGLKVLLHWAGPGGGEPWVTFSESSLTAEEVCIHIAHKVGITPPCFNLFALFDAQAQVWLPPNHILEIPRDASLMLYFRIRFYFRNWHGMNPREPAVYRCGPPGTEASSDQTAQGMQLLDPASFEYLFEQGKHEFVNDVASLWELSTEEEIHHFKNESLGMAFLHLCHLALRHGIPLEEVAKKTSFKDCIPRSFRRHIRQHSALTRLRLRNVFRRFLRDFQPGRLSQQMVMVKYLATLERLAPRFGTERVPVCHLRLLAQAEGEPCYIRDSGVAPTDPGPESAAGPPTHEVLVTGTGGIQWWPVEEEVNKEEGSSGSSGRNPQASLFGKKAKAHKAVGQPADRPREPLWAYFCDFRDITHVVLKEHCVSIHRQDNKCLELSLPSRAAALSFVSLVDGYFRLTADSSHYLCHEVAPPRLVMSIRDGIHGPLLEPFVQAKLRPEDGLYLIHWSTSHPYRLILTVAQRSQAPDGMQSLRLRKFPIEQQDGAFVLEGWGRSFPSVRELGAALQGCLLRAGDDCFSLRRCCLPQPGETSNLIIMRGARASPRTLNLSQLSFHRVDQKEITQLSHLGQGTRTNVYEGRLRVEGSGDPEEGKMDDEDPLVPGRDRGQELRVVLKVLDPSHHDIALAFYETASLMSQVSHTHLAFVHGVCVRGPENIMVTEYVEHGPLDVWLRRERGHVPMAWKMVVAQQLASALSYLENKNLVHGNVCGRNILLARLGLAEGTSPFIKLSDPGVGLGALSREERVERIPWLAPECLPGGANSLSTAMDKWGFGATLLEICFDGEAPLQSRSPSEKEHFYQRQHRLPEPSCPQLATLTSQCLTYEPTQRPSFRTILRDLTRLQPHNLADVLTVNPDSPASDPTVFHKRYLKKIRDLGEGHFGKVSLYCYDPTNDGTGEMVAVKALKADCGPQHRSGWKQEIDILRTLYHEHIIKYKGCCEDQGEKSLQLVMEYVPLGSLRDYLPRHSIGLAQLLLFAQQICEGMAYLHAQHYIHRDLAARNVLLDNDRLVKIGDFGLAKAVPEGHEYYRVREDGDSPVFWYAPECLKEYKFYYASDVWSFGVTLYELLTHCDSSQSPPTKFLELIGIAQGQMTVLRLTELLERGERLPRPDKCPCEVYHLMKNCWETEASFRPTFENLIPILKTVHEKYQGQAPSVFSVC

Compound | IC50 (JAK2) [nM] | GI50 (BaF3-TEL-JAK1) [nM] | IC50 (JAK1) [nM] | IC50 (TYK2) [nM] | GI50 (BaF3-TEL-JAK2) [nM] | microsomal CLint at 1 μM [1] [µL/min/mg] | half-life at 1 μM [1] [h] | AUC [2, 3] [ng·h/mL] | Vd [2, 3] [L/kg] | clearance [2, 3] [mL/min/kg] | half-life ([2]; Sprague-Dawley, plasma, 1 mg/kg, Rat iv @1 mpk, 0.2 mg/mL in 4% DMSO + 15% Solutol HS 15 + 81% Saline, read-out: t½ (converted)) [h] | Pharmacokinetic profile in rats ([2]; conclusion in words)
O=S(=O)(NC12CC(n3cnc4cnc5[nH]ccc5c43)(C1)C2)c1ccc(Cl)cc1 [Example 28, 4-Chloro-N-(3-(imidazo[4,5-d]pyrrolo[2,3-b]pyridin-1(6H)-yl)bicyclo[1.1.1]pentan-1-yl)benzenesulfonamide] | 259 | 51 | 6.7 | 413 | 286 |  |  |  |  |  |  | 
CC(C)CS(=O)(=O)NC12CC(n3cnc4cnc5[nH]ccc5c43)(C1)C2 [Example 5, N-(3-(imidazo[4,5-d]pyrrolo[2,3-b]pyridin-1(6H)-yl)bicyclo[1.1.1]pentan-1-yl)-2-methylpropane-1-sulfonamide] | 145 | 10 | 5.53 | 111 | 380 |  |  |  |  |  |  | 
N#CC1CCN(S(=O)(=O)NC23CC(n4cnc5cnc6[nH]ccc6c54)(C2)C3)C1 (stereo not drawn) [Example 20, 3-Cyano-N-(3-(imidazo[4,5-d]pyrrolo[2,3-b]pyridin-1(6H)-yl)bicyclo[1.1.1]pentan-1-yl)pyrrolidine-1-sulfonamide] | 334 |  | 8.3 | 200 |  |  |  |  |  |  |  | 
N#CC1CN(S(=O)(=O)NC23CC(n4cnc5cnc6[nH]ccc6c54)(C2)C3)C1 [Example 4, 3-Cyano-N-(3-(imidazo[4,5-d]pyrrolo[2,3-b]pyridin-1(6H)-yl)bicyclo[1.1.1]pentan-1-yl)azetidine-1-sulfonamide] | 83.2 |  | 3.2 | 111 |  | 2.11 | 10.9 | 402 | 0.93 | 41.9 | 0.26 | good Pharmacokinetic profile
O=S(=O)(CC1CC(F)(F)C1)NC12CC(n3cnc4cnc5[nH]ccc5c43)(C1)C2 [Example 46, 1-(3,3-Difluorocyclobutyl)-N-(3-(imidazo[4,5-d]pyrrolo[2,3-b]pyridin-1(6H)-yl)bicyclo[1.1.1]pentan-1-yl)methanesulfonamide] | 78.3 | 14.2 | 2.2 | 108 | 133 |  |  |  |  |  |  | 
N#CCCC(=O)NC12CC(n3cnc4cnc5[nH]ccc5c43)(C1)C2 [Example 14, 3-Cyano-N-(3-(imidazo[4,5-d]pyrrolo[2,3-b]pyridin-1(6H)-yl)bicyclo[1.1.1]pentan-1-yl)propanamide] | 73.1 |  | 8.06 |  |  | 0.77 | 29.8 |  |  |  |  | 
O=C(CCC(F)(F)F)NC12CC(n3cnc4cnc5[nH]ccc5c43)(C1)C2 [Example 18, 4,4,4-Trifluoro-N-(3-(imidazo[4,5-d]pyrrolo[2,3-b]pyridin-1(6H)-yl)bicyclo[1.1.1]pentan-1-yl)butanamide] | 167 | 120 | 18.7 |  | 291 |  |  |  |  |  |  | 
CCCCS(=O)(=O)NC12CC(n3cnc4cnc5[nH]ccc5c43)(C1)C2 [Example 31, N-(3-(imidazo[4,5-d]pyrrolo[2,3-b]pyridin-1(6H)-yl)bicyclo[1.1.1]pentan-1-yl)butane-1-sulfonamide] | 129 | 27.8 | 4.8 | 170 | 198 |  |  |  |  |  |  | 
CC(C)(C)OC(=O)NC12CC(n3cnc4cnc5[nH]ccc5c43)(C1)C2 [Example 1i, Tert-butyl (3-(imidazo[4,5-d]pyrrolo[2,3-b]pyridin-1(6H)-yl)bicyclo[1.1.1]pentan-1-yl)carbamate] | 472 |  | 43 | 2880 |  |  |  |  |  |  |  | 
O=C(NCC(F)(F)F)NC12CC(n3cnc4cnc5[nH]ccc5c43)(C1)C2 [Example 41, 1-(3-(Imidazo[4,5-d]pyrrolo[2,3-b]pyridin-1(6H)-yl)bicyclo[1.1.1]pentan-1-yl)-3-(2,2,2-trifluoroethyl)urea] | 94.6 | 99.6 | 8.5 |  | 1000 |  |  |  |  |  |  | 
O=S(=O)(NC12CC(n3cnc4cnc5[nH]ccc5c43)(C1)C2)C1CC1 [Example 7, N-(3-(imidazo[4,5-d]pyrrolo[2,3-b]pyridin-1(6H)-yl)bicyclo[1.1.1]pentan-1-yl)cyclopropanesulfonamide] | 470 |  | 45.3 | 574 |  |  |  |  |  |  |  | 
COCCS(=O)(=O)NC12CC(n3cnc4cnc5[nH]ccc5c43)(C1)C2 [Example 6, N-(3-(imidazo[4,5-d]pyrrolo[2,3-b]pyridin-1(6H)-yl)bicyclo[1.1.1]pentan-1-yl)-2-methoxyethanesulfonamide] | 597 |  | 24.4 | 1050 |  |  |  |  |  |  |  | 
CCCS(=O)(=O)N[C@H]1C[C@H](n2cnc3cnc4[nH]ccc4c32)C1 [Example 3, N-(trans-3-(imidazo[4,5-d]pyrrolo[2,3-b]pyridin-1(6H)-yl)cyclobutyl)propane-1-sulfonamide] | 1540 | 1090 | 190 | 3660 | 2540 |  |  |  |  |  |  | 
CCCS(=O)(=O)N[C@H]1C[C@@H](n2cnc3cnc4[nH]ccc4c32)C1 [Example 2, N-(Cis-3-(imidazo[4,5-d]pyrrolo[2,3-b]pyridin-1(6H)-yl)cyclobutyl)propane-1-sulfonamide] | 1090 | 352 | 69.2 | 2850 | 2300 |  |  |  |  |  |  | 
O=S(=O)(NC12CC(n3cnc4cnc5[nH]ccc5c43)(C1)C2)N1CC(F)(F)C1 [Example 23, 3,3-difluoro-N-(3-(imidazo[4,5-d]pyrrolo[2,3-b]pyridin-1(6H)-yl)bicyclo[1.1.1]pentan-1-yl)azetidine-1-sulfonamide] | 50.8 | 41.6 | 3.4 | 33.5 | 148 |  |  |  |  |  |  | 
